These are literature values, as cited in patent US12582591B2, “Increased solubilization of ethylhexyl triazone” (DSM IP Assets B.V., priority 2020, dated 2026).

The conditions of this data set: for Solubility in esters and alcohols: particularly ethyl acetate, ethanol / alcohols.
The mark [1] stands for this setting: listed as UV-filter of the formula (I).

Like-named read-outs stand apart in the source and are kept apart here.

Regarding `CCCCC(CC)COC(=O)c1ccc(Nc2nc(Nc3ccc(C(=O)OCC(CC)CCCC)cc3)nc(Nc3ccc(C(=O)OCC(CC)CCCC)cc3)n2)cc1` (stereo not shown) [Ethylhexyl triazone, ethylhexyl triazone], the “Solubility in esters and alcohols” value is listed as “moderate solubility”; the “Solubility in water and alkanes” value is given as “very low”. Besides, under setting [1], the “Solubility in esters and alcohols” value is “very soluble”; the “Solubility in water and alkanes” value is “insoluble”.
